Measured values as given in PMC3914206.

What was measured:
[1] = biological target: T1, panel of 442 kinases (Homo sapiens, UniProt O15197); assay type: binding; settings: Compound Concentration 10 µM
T1 construct: purchased KINOMEscan
T1 sequence (O15197 32-1021): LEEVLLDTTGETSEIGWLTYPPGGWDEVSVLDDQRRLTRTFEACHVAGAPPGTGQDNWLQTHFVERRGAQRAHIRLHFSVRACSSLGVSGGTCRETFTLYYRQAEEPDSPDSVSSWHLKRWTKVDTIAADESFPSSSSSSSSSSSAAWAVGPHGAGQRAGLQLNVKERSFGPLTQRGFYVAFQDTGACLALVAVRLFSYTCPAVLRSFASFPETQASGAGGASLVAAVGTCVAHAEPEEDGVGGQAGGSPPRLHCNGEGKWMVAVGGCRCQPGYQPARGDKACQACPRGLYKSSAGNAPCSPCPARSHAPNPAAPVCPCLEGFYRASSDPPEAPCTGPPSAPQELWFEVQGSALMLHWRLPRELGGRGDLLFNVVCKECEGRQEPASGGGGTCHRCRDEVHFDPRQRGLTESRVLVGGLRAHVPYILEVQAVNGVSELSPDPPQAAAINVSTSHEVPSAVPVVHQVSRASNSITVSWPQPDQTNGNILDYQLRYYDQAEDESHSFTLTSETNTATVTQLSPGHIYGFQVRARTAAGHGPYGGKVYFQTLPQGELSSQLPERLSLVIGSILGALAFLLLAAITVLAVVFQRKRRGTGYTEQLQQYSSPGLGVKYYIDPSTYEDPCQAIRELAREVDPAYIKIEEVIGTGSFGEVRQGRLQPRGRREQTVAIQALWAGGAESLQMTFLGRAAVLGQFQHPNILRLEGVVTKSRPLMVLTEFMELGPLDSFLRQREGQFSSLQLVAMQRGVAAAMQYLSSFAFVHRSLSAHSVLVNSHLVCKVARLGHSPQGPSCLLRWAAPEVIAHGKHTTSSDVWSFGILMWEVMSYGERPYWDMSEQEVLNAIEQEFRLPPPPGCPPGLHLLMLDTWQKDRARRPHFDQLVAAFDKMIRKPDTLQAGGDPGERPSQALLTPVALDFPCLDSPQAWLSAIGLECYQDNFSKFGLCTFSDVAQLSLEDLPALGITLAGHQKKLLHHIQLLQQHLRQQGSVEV
Excerpt: (§1) We assessed the selectivity of members of this scaffold using the KINOMEscan methodology across a near comprehensive panel of 442 kinases [[18,27]].

[2] = biological target: T2, panel of 442 kinases (Homo sapiens, UniProt P00533, L858R/T790M); assay type: binding; settings: Compound Concentration 10 µM
T2 construct: purchased KINOMEscan
T2 sequence (P00533 25-1210 T790M/L858R): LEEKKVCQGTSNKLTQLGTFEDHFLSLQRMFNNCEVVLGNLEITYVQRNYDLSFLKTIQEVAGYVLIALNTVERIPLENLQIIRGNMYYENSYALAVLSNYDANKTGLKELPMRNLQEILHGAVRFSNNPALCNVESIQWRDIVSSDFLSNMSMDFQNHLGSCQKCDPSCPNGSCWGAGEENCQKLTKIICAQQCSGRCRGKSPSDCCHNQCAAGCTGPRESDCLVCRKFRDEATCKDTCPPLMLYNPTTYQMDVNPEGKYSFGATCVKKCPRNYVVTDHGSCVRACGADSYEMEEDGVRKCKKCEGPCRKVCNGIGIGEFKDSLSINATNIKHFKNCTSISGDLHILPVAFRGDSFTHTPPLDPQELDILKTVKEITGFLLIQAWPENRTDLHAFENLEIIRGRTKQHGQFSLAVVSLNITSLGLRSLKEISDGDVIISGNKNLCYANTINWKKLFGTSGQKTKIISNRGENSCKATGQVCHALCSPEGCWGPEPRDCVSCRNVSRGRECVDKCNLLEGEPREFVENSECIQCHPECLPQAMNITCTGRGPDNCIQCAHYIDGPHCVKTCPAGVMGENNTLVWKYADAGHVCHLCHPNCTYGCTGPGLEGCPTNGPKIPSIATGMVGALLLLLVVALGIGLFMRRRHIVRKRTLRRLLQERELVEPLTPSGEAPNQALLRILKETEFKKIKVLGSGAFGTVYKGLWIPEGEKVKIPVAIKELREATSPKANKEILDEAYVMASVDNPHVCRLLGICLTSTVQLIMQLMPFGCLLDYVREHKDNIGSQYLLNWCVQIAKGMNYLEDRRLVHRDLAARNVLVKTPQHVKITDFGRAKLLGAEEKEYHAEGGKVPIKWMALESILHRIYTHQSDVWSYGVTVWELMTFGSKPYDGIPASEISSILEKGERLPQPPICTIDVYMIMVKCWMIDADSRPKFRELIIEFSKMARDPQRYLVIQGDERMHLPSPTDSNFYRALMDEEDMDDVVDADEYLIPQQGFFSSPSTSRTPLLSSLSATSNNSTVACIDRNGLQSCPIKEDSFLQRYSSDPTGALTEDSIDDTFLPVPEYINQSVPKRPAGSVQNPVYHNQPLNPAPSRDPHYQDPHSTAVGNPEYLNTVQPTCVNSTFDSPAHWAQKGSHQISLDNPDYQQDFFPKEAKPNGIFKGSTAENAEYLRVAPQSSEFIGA
Excerpt: as §1

SMILES | KINOMEscan: EPHB6 [1] | KINOMEscan: EGFR(L858R,T790M) [2]
COc1cc(C(=O)N2CCC(N3CCN(C)CC3)CC2)ccc1Nc1ncc2c(n1)N(C)c1ccccc1C(=O)N2C [15 (LRRK2-IN-1)] | 31 | 84
COc1cc(C(=O)N2CCC(N3CCN(C)CC3)CC2)ccc1Nc1ncc2c(n1)N1CCc3cccc(c31)C(=O)N2C [Compound 24] | 68 | –
COc1cc(C(=O)N2CCC(N3CCN(C)CC3)CC2)ccc1Nc1ncc2c(n1)N(C1CCCC1)c1ccccc1C(=O)N2C [Compound 25, 11-cyclopentyl-2-((2-methoxy-4-(4-(4-methylpiperazin-1-yl)piperidine-1-carbonyl)phenyl)amino)-5-methyl-5H-benzo[e]pyrimido[5,4-b][1,4]diazepin-6(11H)-one] | 69 | 100
CCOc1cc(C(=O)N2CCC(N3CCN(C)CC3)CC2)ccc1Nc1ncc2c(n1)N(C1CCCC1)c1ccccc1C(=O)N2C [Compound 26] | 100 | 78
